Laboratory results taken from PubChem BioAssay (NCI).
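Assay format: 96-well plates, 48-hour exposure. GI50: concentration for 50% inhibition of growth. TGI marks complete inhibition of growth.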

Columns and labels:
Test in all cases: DTP human tumour cell line panel, 48 h
CAKI-1 renal = system: CAKI-1 renal
EKVX NSCLC = system: EKVX NSCLC
HOP-92 NSCLC = system: HOP-92 NSCLC
HT29 colon = system: HT29 colon
K-562 leukemia = system: K-562 leukemia
SK-MEL-28 melanoma = system: SK-MEL-28 melanoma
SNB-19 CNS = system: SNB-19 CNS
SNB-75 CNS = system: SNB-75 CNS
UO-31 renal = system: UO-31 renal
SK-OV-3 ovarian = system: SK-OV-3 ovarian

COC(=O)C(=O)CC(=O)CCn1[nH]c(=O)c(Cl)c(Cl)c1=O
TGI (CAKI-1 renal): > 100 µM | TGI (EKVX NSCLC): > 100 µM | TGI (HOP-92 NSCLC): > 100 µM | TGI (HT29 colon): > 100 µM | TGI (K-562 leukemia): > 100 µM | TGI (SK-MEL-28 melanoma): > 100 µM | TGI (SNB-19 CNS): > 100 µM | TGI (SNB-75 CNS): > 100 µM | TGI (UO-31 renal): > 100 µM

O=C1NC(=S)S/C1=C/c1ccc2c(c1)OCO2
GI50 (CAKI-1 renal): > 100 µM | TGI (CAKI-1 renal): > 100 µM | GI50 (EKVX NSCLC): 88.4 µM | TGI (EKVX NSCLC): > 100 µM | GI50 (HOP-92 NSCLC): 17.6 µM | TGI (HOP-92 NSCLC): 87.7 µM | GI50 (HT29 colon): > 100 µM | TGI (HT29 colon): > 100 µM | GI50 (K-562 leukemia): > 100 µM | TGI (K-562 leukemia): > 100 µM | GI50 (SK-MEL-28 melanoma): > 100 µM | TGI (SK-MEL-28 melanoma): > 100 µM | GI50 (SK-OV-3 ovarian): > 100 µM | TGI (SK-OV-3 ovarian): > 100 µM | GI50 (SNB-19 CNS): > 100 µM | TGI (SNB-19 CNS): > 100 µM | GI50 (UO-31 renal): 5.8 µM | TGI (UO-31 renal): > 100 µM

Cc1ccc(S(=O)(=O)N/N=C2\CCCCC23CCC(=O)NC3)cc1 (configuration not stated)
TGI (CAKI-1 renal): > 100 µM | TGI (K-562 leukemia): > 100 µM | TGI (SK-MEL-28 melanoma): > 100 µM | TGI (SK-OV-3 ovarian): > 100 µM | TGI (SNB-19 CNS): > 100 µM | TGI (SNB-75 CNS): > 100 µM | TGI (UO-31 renal): > 100 µM

Nc1n[nH]c2cccc(C#Cc3cccc(NC(=O)c4cccc(C(F)(F)F)c4)c3)c12
GI50 (EKVX NSCLC): 6.2 µM | TGI (EKVX NSCLC): 19.8 µM | GI50 (HOP-92 NSCLC): 1.9 µM | TGI (HOP-92 NSCLC): 5.24 µM | GI50 (HT29 colon): 2.98 µM | TGI (HT29 colon): 12.8 µM | GI50 (K-562 leukemia): 0.19 µM | TGI (K-562 leukemia): 11.1 µM | GI50 (SK-MEL-28 melanoma): 2.72 µM | TGI (SK-MEL-28 melanoma): 12.5 µM | GI50 (SK-OV-3 ovarian): 3.19 µM | TGI (SK-OV-3 ovarian): 10.2 µM | GI50 (SNB-19 CNS): 6.13 µM | TGI (SNB-19 CNS): 18.5 µM | GI50 (SNB-75 CNS): 2.79 µM | TGI (SNB-75 CNS): 18.6 µM | GI50 (UO-31 renal): 2.29 µM | TGI (UO-31 renal): 9.45 µM

COc1ccc2c(c1)C(=O)CCc1cc(OC)c(OC)c(OC)c1-2
GI50 (CAKI-1 renal): < 0.01 µM | TGI (CAKI-1 renal): > 100 µM | GI50 (HT29 colon): < 0.01 µM | GI50 (K-562 leukemia): < 0.01 µM | TGI (K-562 leukemia): > 100 µM | GI50 (SK-MEL-28 melanoma): 24.8 µM | TGI (SK-MEL-28 melanoma): > 100 µM | TGI (SK-OV-3 ovarian): > 100 µM | GI50 (SNB-19 CNS): < 0.01 µM | TGI (SNB-19 CNS): > 100 µM | GI50 (UO-31 renal): < 0.01 µM | TGI (UO-31 renal): > 100 µM

COc1ccc(NC(=O)CC/C(CC(=O)c2ccco2)=N/NC(=O)C(N)=O)cc1
TGI (CAKI-1 renal): > 100 µM | TGI (EKVX NSCLC): > 100 µM | TGI (HT29 colon): > 100 µM | TGI (K-562 leukemia): > 100 µM | TGI (SK-MEL-28 melanoma): > 100 µM | TGI (SK-OV-3 ovarian): > 100 µM | TGI (SNB-19 CNS): > 100 µM | TGI (SNB-75 CNS): > 100 µM | TGI (UO-31 renal): > 100 µM

CC1(O)C(C)(O)C2(C)O[Te]3(OC12C)OC1(C)C(C)(O)C(C)(O)C1(C)O3 (configuration not stated)
TGI (EKVX NSCLC): > 100 µM | TGI (HOP-92 NSCLC): 49.2 µM | TGI (HT29 colon): > 100 µM | TGI (K-562 leukemia): 39 µM | TGI (SK-MEL-28 melanoma): 38.1 µM | TGI (SNB-19 CNS): > 100 µM | TGI (SNB-75 CNS): > 100 µM | TGI (UO-31 renal): 87.5 µM

COc1cc(C=O)c(-c2c(C=O)ccc3c2OCO3)c(OC)c1OC
TGI (CAKI-1 renal): > 100 µM | TGI (EKVX NSCLC): > 100 µM | TGI (HT29 colon): > 100 µM | TGI (K-562 leukemia): > 100 µM | TGI (SK-MEL-28 melanoma): > 100 µM | TGI (SK-OV-3 ovarian): > 100 µM | TGI (SNB-19 CNS): > 100 µM | TGI (SNB-75 CNS): > 100 µM | TGI (UO-31 renal): > 100 µM

N#CCC(=O)N/N=C1/C(=O)N(c2ccc(Cl)cc2)C(=O)C(=O)C1c1nc2ccccc2s1 (configuration not stated)
TGI (CAKI-1 renal): > 100 µM | TGI (EKVX NSCLC): > 100 µM | TGI (HOP-92 NSCLC): > 100 µM | TGI (HT29 colon): > 100 µM | TGI (SK-MEL-28 melanoma): > 100 µM | TGI (SK-OV-3 ovarian): > 100 µM | TGI (SNB-19 CNS): > 100 µM | TGI (SNB-75 CNS): 63.7 µM | TGI (UO-31 renal): > 100 µM

Cc1ccc(S(=O)(=O)N=Nc2c(O)[nH]c3cc(O)c(C(=O)O)cc23)cc1
TGI (CAKI-1 renal): > 100 µM | TGI (EKVX NSCLC): > 100 µM | TGI (HT29 colon): > 100 µM | TGI (K-562 leukemia): > 100 µM | TGI (SK-MEL-28 melanoma): > 100 µM | TGI (SK-OV-3 ovarian): > 100 µM | TGI (SNB-19 CNS): > 100 µM | TGI (SNB-75 CNS): > 100 µM | TGI (UO-31 renal): > 100 µM

O=C1N/C(=C\[N+](=O)[O-])c2ccccc21
TGI (EKVX NSCLC): > 100 µM | TGI (HOP-92 NSCLC): > 100 µM | TGI (HT29 colon): > 100 µM | TGI (K-562 leukemia): > 100 µM | TGI (SK-MEL-28 melanoma): > 100 µM | TGI (SK-OV-3 ovarian): > 100 µM | TGI (SNB-19 CNS): > 100 µM | TGI (SNB-75 CNS): 93.3 µM | TGI (UO-31 renal): > 100 µM

CC(C)CNc1nc(-c2ccccc2Cl)nc2ccccc12
GI50 (CAKI-1 renal): 15 µM | TGI (CAKI-1 renal): 32.7 µM | GI50 (HOP-92 NSCLC): 15.6 µM | TGI (HOP-92 NSCLC): 35.2 µM | GI50 (K-562 leukemia): 16.8 µM | TGI (K-562 leukemia): 43.5 µM | GI50 (SK-MEL-28 melanoma): 20.8 µM | TGI (SK-MEL-28 melanoma): 40.7 µM | GI50 (SK-OV-3 ovarian): 21.3 µM | TGI (SK-OV-3 ovarian): 50.1 µM | GI50 (SNB-19 CNS): 24.8 µM | TGI (SNB-19 CNS): 58.5 µM | GI50 (UO-31 renal): 17.1 µM | TGI (UO-31 renal): 49.2 µM

CCOC(=O)[CH-]C(=O)C12CC3CC(CC(C3)C1)C2.CCOC(=O)[CH-]C(=O)C12CC3CC(CC(C3)C1)C2.CC[O-].CC[O-].[Ti+4]
GI50 (CAKI-1 renal): > 100 µM | TGI (CAKI-1 renal): > 100 µM | GI50 (HOP-92 NSCLC): > 100 µM | TGI (HOP-92 NSCLC): > 100 µM | GI50 (HT29 colon): > 100 µM | TGI (HT29 colon): > 100 µM | GI50 (K-562 leukemia): > 100 µM | TGI (K-562 leukemia): > 100 µM | GI50 (SK-MEL-28 melanoma): > 100 µM | TGI (SK-MEL-28 melanoma): > 100 µM | GI50 (SK-OV-3 ovarian): > 100 µM | TGI (SK-OV-3 ovarian): > 100 µM | GI50 (SNB-19 CNS): > 100 µM | TGI (SNB-19 CNS): > 100 µM | GI50 (SNB-75 CNS): 36.9 µM | TGI (SNB-75 CNS): > 100 µM | GI50 (UO-31 renal): > 100 µM | TGI (UO-31 renal): > 100 µM

CN(C)CCOc1ccc([N+](=O)[O-])c2cccnc12
TGI (CAKI-1 renal): > 100 µM | TGI (HT29 colon): > 100 µM | TGI (K-562 leukemia): > 100 µM | TGI (SK-MEL-28 melanoma): > 100 µM | TGI (SK-OV-3 ovarian): > 100 µM | TGI (SNB-19 CNS): > 100 µM | TGI (SNB-75 CNS): > 100 µM | TGI (UO-31 renal): > 100 µM
